The first assay deals with T1, Gonadotropin-releasing hormone receptor (Rattus norvegicus, UniProt P30969).
T1 sequence (P30969 whole entry): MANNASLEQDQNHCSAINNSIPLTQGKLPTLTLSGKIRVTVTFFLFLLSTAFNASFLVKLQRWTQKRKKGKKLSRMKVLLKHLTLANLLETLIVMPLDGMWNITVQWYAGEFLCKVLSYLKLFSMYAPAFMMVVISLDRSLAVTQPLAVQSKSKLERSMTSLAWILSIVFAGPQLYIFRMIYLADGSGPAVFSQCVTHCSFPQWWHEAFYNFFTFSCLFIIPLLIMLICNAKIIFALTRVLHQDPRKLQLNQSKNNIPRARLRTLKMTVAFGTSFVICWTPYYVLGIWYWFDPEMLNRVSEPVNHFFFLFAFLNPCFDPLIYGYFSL
In words: Binding affinity for Gonadotropin-releasing hormone receptor in rat pituitary membrane at 10 buserelin as radioligand; NA is not active. In kind it is cell membranes.
In the case of `Cc1cc(C)cc(-c2c(O)nc3cc(Cl)c([N+](=O)[O-])cc3c2OCCc2ccccn2)c1`, the IC50 result is given as “Not Active”.

The target in a further assay is T1, Gonadotropin-releasing hormone receptor. In words: Binding affinity for Gonadotropin-releasing hormone receptor in rat pituitary membrane at 10 buserelin as radioligand. In kind it is cell membranes.
`Cc1cc(C)cc(-c2c(O)nc3cc(Cl)c([N+](=O)[O-])cc3c2OCC[C@@H]2CCCCN2)c1`: the IC50 was determined as 10 nM. The same measure, in the same setting: for `Cc1cc(C)cc(-c2c(O)nc3cc(Cl)c([N+](=O)[O-])cc3c2OCC[C@H]2CCCN2)c1` the value was 100 nM; for `Cc1cc(C)cc(-c2c(O)nc3cc(Cl)c([N+](=O)[O-])cc3c2OCC[C@@H]2CCCCN2C)c1`, 20 nM; for `Cc1cc(C)cc(-c2c(O)nc3cc(Cl)c([N+](=O)[O-])cc3c2OCC[C@@H]2CCCN2)c1`, 15 nM. For the molecule `Cc1cc(C)cc(-c2c(O)nc3cc(Cl)c([N+](=O)[O-])cc3c2OCC[C@H]2CCCCN2C)c1`, the IC50 was determined as 85 nM. On to `Cc1cc(C)cc(-c2c(O)nc3cc(Cl)c([N+](=O)[O-])cc3c2OCCCC2CCCCN2)c1` (stereo unspecified), for which the 50% inhibitory concentration (IC50) came to 1420 nM. Same read-out and setting: for `Cc1cc(C)cc(-c2c(OCCC3CCCCCN3)c3cc([N+](=O)[O-])c(Cl)cc3[nH]c2=O)c1` (stereo unspecified) the value was 36 nM. Still for that read-out and setting: for `Cc1cc(C)cc(-c2c(O)nc3cc(Cl)c([N+](=O)[O-])cc3c2OCC[C@@H]2CCN2)c1` the value was 25 nM. Same read-out and setting: next, `Cc1cc(C)cc(-c2c(OCC3CCCNC3)c3cc([N+](=O)[O-])c(Cl)cc3[nH]c2=O)c1` (stereo unspecified): 36 nM; `Cc1cc(C)cc(-c2c(O)nc3cc(Cl)c([N+](=O)[O-])cc3c2OCC[C@H]2CCCCN2)c1`: 150 nM.

A word on the IC50: it is the concentration needed to halve the response being measured. A low value points to inhibition by little substance.

The values above are taken from ChEMBL document CHEMBL1131972, “Investigation of the 4-O-alkylamine substituent of non-peptide quinolone GnRH receptor antagonists” (Bioorg Med Chem Lett, 1999).
